Measurements as given in patent publication US7964559B2, “MVL, an antiviral protein from a cyanobacterium” (The United States of America, as represented by the …, priority 2004, dated 2011).
“Also recorded” adds a separate entry of the source. Like-named read-outs stand apart in the source and are kept apart here.

How the values were obtained:
[1] = molecular target: T1, MVL (Microcystis viridis, UniProt Q9RHG4); type: binding; conditions: for Binding to MVL: Table 1, MVL binding studies
[2] = molecular target: T1, MVL; type: cell-based
[3] = molecular target: T1, MVL; type: binding; conditions: for Stoichiometry: carbohydrates per MVL monomer, 10 mM Tris pH 6.5; for ΔG: ΔG = −RT · lnKA, T = 298 K
[4] = test system: M-tropic virus SF162 and a T-tropic virus (LAV); experiment: Single round HIV-infectivity assay; type: cell-based; conditions: read-out: approximate IC50, HIV infectivity
[5] = test system: HIV-1 T-cell tropic (T-tropic) strain LAV; conditions: read-out: IC50, inhibition of Env-mediated fusion
[6] = test system: HIV-1 macrophage tropic (M-tropic) strain SF162; conditions: read-out: IC50, inhibition of Env-mediated fusion
[7] = excess carbohydrate, pH 6.85, 27° C.

In the case of `CC(=O)N[C@H]1C(O)O[C@H](CO)[C@@H](O[C@@H]2O[C@H](CO)[C@@H](O)[C@H](O)[C@@H]2O)[C@@H]1O` (stereo partly shown) [Manβ(1→4)GlcNAc], the “binding to MVL / change of 1H-15N correlation spectra of MVL” value (from here on “binding to MVL / change”) ([1]; pH 6.85) is reported as “nor do they bind”.

In the case of Man9GlcNAc2 [oligomannose-9], the “Binding to MVL” value [1] is reported as 3 and the “effect of pretreatment of MVL on inhibition of fusion by MVL” value ([2]; MVL 200 nM, 5-fold excess of carbohydrate) is reported as “partially reduced inhibition”.

For “Manα (1→3)[Manα(1→6)]Manβ [Manα(1→3)[Manα(1→6)]Man]”, the “binding to MVL / change” value ([1]; pH 6.85) was “identical to that of free MVL; also recorded: nor do they bind” and the “effect of pretreatment of MVL on inhibition of fusion by MVL” value [2] was “no effect”.

`CC(=O)N[C@H]1[C@H](O[C@H]2[C@H](O)[C@@H](NC(C)=O)C(O)O[C@@H]2CO)O[C@H](CO)[C@@H](O)[C@@H]1O` (stereo partly shown) [GlcNAcβ(1→4) GlcNAc, GlcNAcβ(1→4)GlcNAc] was tested, and the “binding to MVL / change” value [1, 7] was “nor do they bind” and the “binding to MVL / change” value ([1]; excess carbohydrate, pH 6.85, 27° C., listed as GlcNAc2) was “identical to that of free MVL”.

For `CC(=O)N[C@H]1[C@H](O[C@H]2[C@H](O)[C@@H](NC(C)=O)C(O)O[C@@H]2CO)O[C@H](CO)[C@@H](O[C@@H]2O[C@H](CO[C@H]3O[C@H](CO)[C@@H](O)[C@H](O)[C@@H]3O)[C@@H](O)[C@H](O)[C@@H]2O)[C@@H]1O` (stereo partly shown) [oligomannose-2A, Manα(1→6)Manβ(1→4)GlcNAcβ(1→4)GlcNAc], the “Binding to MVL” value [1] was 3, the “binding to MVL / change” value [1, 7] was “binds with high affinity” and the ΔH ([3]; 25° C., pH 6.5) was -10.5 ± 0.04 kcal/mol. The Stoichiometry ([3]; one site model, 25° C., listed as Man2A) was 2.04 ± 0.05, the Stoichiometry ([3]; one site model, 25° C., listed as Man2GlcNAc2) was “two” and the ΔG [3] was -7.4 ± 0.6 kcal/mol.

With `CC(=O)N[C@H]1[C@H](O[C@H]2[C@H](O)[C@@H](NC(C)=O)C(O)O[C@@H]2CO)O[C@H](CO)[C@@H](O[C@@H]2O[C@H](CO[C@H]3O[C@H](CO[C@H]4O[C@H](CO)[C@@H](O)[C@H](O)[C@@H]4O)[C@@H](O)[C@H](O[C@H]4O[C@H](CO)[C@@H](O)[C@H](O)[C@@H]4O)[C@@H]3O)[C@@H](O)[C@H](O[C@H]3O[C@H](CO)[C@@H](O)[C@H](O)[C@@H]3O)[C@@H]2O)[C@@H]1O` (stereo partly shown) [oligomannose-5, Man5GlcNAc2] the “Binding to MVL” value [1] was 3.

Man6GlcNAc2 [oligomannose-6] was tested, and the “lifetime of the MVL:carbohydrate complex” value ([1]; (2πΔδ)^−1 from chemical shift differences) was greater than 16 ms, the “Binding to MVL” value [1] was 3 and the “binding to MVL / change” value [1, 7] was “dramatic changes”. For the same molecule, the ΔH ([3]; 25° C., pH 6.5) was -20.8 ± 0.1 kcal/mol, the Stoichiometry ([3]; one site model, 25° C., listed as Man6) was 2.06 ± 0.01 and the Stoichiometry ([3]; one site model, 25° C., listed as Man6GlcNAc2) was “two”. The Ka ([3]; equilibrium association constant, one site model, 25° C., pH 6.5) was 4.5 (±0.3)×10^6 M^−1 and the ΔG [3] was -9.0 ± 0.6 kcal/mol.

B1: MVL: 113 amino acid, 13 kDa carbohydrate binding protein (lectin) from Microcystis viridis NIES-102, SEQ ID NO: 3 (protein, listed as Microcystis viridis)
chain: ASYKVNIPAGPLWSNAEAQQVGPKIAAAHQGNFTGQWTTVVESAMSVVEVELQVENTGIHEFKTDVLAGPLWSNDEAQKLGPQIAASYGAEFTGQWRTIVEGVMSVIQIKYTF
B1 was tested, and the IC50 [4] was 30 to 50 nM, the IC50 [5] was 30 ± 4 nM and the IC50 [6] was 37 ± 6 nM.
